One compound from patent US20080300258A1, “ANHYDROUS CIPROFLOXACIN HYDROCHLORIDE” (priority 2007, published 2008) can be followed below.

The conditions of this series: eight weeks of storage at 40 degrees C., relative humidity 75%.

Turning to `O=C(O)c1cn(C2CC2)c2cc(N3CCNCC3)c(F)cc2c1=O` [1-cyclopropyl-6-fluoro-1,4-dihydro-4-oxo-7-(1-piperazinyl)-3-quinolinecarboxylic acid], the decomposition on storage entry is “no significant decomposition was observed” and the “water intake on storage” value is “No water intake was observed”.
